pIC50: −log10 of the molar value. Where two headings read alike, the source gives them in different places.
How the values were obtained:
[1] = system: Karpas 422 cells expressing mutant EZH2 (Y641N); test: Karpas 422 cell viability (Cell Titre Glo) assay; type: cell-based, human; settings: CTG viability, time point (Day 4, Day 7 or Day 11) not given, read-out: IC50, Inhibiting Proliferation of Cells Expressing an Activating Mutant Form of EZH2
Summary of the method: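 Cells plated at 1000/well were exposed to final concentrations from 10 μM down to 1.5 nM (3-fold steps) at 37° C. Viability was read by CellTiter-Glo on day 4, 7 or 11; day-11 plates were re-fed with compound on day 7. IC50 reported per time point in binned ranges.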

[2] = system: PRC2-mediated histone H3 methylation (H3 Lys27 trimethylation) in Pfeiffer cells expressing mutant EZH2 (A677G); test: Tri-Methyl Histone H3 (Lys 27) sandwich ELISA in Pfeiffer cells; type: cell-based, human; settings: Pfeiffer cells, 96 hours incubation, ELISA, read-out: IC50, Inhibition of EZH2-mediated Histone H3 Trimethylation
Summary of the method: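 Pfeiffer DLBCL cells carrying EZH2 A677G were treated for 96 h at 37 °C with 3-fold dilutions, 1 μM to 0.15 nM final. Acid-extracted histones, neutralized, went into a sandwich ELISA for H3K27me3 with HRP/TMB read-out at 450 nm. Values binned A ≤250 nM, B >250–≤500 nM, C >500 nM–≤5 μM.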

[3] = molecular target: purified human, His-tagged PRC2 complex (Homo sapiens (Human), UniProt O75530); test: Hot Spot HMT assay of PRC2 enzymatic activity (tritiated methyl transfer from SAM to core histone); type: biochemical; settings: 10 nM purified PRC2 complex, 0.05 mg/ml core histone H3, 1 uM 3H-SAM, 1 hr at 30° C.; read-out: IC50, Inhibition of PRC2-mediated Enzymatic Activity
Sequence of purified human, His-tagged PRC2 complex (Q15910 whole entry): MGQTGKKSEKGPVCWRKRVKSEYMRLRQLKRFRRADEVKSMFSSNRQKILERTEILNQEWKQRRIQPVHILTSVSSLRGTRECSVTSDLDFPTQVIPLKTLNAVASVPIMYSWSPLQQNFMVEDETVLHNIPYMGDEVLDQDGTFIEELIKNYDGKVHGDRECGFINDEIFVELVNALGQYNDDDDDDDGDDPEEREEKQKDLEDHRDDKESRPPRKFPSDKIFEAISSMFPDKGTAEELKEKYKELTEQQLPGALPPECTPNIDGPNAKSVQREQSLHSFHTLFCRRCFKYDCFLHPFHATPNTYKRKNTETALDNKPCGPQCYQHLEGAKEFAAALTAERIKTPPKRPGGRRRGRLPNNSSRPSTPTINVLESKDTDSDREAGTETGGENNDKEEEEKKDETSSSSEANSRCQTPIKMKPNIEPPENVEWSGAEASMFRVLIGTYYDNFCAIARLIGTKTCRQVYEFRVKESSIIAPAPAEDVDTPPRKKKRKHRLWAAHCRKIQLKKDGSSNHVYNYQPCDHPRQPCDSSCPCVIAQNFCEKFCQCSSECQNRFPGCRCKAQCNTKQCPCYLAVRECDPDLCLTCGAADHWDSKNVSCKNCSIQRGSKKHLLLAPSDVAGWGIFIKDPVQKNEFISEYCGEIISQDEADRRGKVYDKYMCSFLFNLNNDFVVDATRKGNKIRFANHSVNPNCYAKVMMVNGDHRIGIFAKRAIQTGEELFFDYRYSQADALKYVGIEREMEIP
Sequence of purified human, His-tagged PRC2 complex (O75530 whole entry): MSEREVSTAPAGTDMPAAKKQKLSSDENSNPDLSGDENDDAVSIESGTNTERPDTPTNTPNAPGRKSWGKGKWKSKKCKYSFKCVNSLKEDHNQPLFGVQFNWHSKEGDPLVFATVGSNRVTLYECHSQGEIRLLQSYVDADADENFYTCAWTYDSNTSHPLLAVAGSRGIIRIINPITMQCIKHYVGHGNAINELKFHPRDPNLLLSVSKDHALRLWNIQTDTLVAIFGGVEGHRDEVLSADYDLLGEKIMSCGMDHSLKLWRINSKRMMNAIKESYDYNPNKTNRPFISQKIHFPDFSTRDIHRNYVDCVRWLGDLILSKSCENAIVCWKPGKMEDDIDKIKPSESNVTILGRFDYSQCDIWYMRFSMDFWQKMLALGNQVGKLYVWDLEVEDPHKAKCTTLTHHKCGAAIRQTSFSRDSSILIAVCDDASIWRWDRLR
Sequence of purified human, His-tagged PRC2 complex (Q15022 whole entry partner): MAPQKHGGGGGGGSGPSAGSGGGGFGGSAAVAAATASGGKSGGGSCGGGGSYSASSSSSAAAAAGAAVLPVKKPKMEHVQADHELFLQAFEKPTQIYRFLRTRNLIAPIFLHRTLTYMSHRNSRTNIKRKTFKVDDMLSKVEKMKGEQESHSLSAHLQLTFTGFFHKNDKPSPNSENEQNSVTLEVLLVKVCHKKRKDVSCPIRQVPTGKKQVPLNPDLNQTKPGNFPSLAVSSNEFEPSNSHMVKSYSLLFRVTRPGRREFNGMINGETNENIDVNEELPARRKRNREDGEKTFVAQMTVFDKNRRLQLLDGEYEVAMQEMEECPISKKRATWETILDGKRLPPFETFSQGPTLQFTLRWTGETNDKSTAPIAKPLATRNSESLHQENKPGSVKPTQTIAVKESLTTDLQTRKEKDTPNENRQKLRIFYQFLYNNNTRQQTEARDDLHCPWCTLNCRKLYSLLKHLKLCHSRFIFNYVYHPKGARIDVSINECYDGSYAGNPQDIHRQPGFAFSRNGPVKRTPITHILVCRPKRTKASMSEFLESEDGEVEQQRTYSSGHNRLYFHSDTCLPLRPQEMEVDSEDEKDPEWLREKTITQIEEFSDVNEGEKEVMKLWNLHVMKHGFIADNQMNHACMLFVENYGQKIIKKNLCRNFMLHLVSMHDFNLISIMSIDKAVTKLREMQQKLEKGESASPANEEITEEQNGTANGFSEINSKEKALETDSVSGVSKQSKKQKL
Sequence of purified human, His-tagged PRC2 complex (Q6ZN18 whole entry partner): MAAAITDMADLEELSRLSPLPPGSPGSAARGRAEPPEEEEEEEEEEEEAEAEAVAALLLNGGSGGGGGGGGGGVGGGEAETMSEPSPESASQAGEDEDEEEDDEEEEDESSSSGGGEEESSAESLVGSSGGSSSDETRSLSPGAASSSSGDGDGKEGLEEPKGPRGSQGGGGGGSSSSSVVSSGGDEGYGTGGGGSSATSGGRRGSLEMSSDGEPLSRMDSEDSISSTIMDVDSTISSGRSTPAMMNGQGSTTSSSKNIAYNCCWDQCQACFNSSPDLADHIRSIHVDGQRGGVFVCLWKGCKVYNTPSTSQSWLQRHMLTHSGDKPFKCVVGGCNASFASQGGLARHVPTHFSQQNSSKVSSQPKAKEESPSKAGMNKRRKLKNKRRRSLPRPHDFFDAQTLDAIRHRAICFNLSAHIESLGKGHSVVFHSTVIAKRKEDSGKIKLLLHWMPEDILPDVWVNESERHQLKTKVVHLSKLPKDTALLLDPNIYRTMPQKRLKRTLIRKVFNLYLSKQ
Sequence of purified human, His-tagged PRC2 complex (Q09028 whole entry partner): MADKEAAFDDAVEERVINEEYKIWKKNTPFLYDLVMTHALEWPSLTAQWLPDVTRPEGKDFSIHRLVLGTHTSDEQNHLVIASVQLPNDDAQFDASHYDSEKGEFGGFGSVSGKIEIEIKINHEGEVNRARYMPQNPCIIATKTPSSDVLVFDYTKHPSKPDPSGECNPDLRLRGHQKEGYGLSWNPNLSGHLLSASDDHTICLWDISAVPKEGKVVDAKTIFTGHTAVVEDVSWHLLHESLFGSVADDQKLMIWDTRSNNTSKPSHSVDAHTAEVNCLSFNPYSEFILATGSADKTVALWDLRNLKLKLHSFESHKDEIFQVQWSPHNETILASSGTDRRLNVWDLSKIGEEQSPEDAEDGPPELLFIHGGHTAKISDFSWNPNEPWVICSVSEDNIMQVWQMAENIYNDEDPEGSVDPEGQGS
Summary of the method: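 10 nM His-tagged five-subunit PRC2 complex (EZH2, EED, SUZ12, AEBP2, RbAp48) with 0.05 mg/ml core histone H3 in pH 8 Tris buffer, 1% DMSO, preincubated with compound 20 min at 30° C; reaction started with 1 uM [3H]-SAM, 1 hr at 30° C. Filter binding plus scintillation counting; IC50 from 10-point, three-fold dilutions starting at 1.0 μM.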

| Structure (SMILES) | pIC50 ([1]; Homo sapiens) | pIC50 ([2]; Homo sapiens) | pIC50 [3] | pIC50 [1] | pIC50 [2] |
| --- | --- | --- | --- | --- | --- |
| Cc1cc(-c2cnc(NCc3c(F)ccc4c3CCO4)n3cc(C(C)O)nc23)n(C)n1 (stereo not drawn) [Example 7, 1-(8-(1,3-dimethyl-1H-pyrazol-5-yl)-5-(((5-fluoro-2,3-dihydrobenzofuran-4-yl)methyl)amino)imidazo[1,2-c]pyrimidin-2-yl)ethan-1-ol] | 5.30 to 6.30 | > 6.60 | > 6.60 |  |  |
| Cc1c(F)cccc1-c1cnc(NCc2c(F)ccc3c2CCO3)n2cc(CN)nc12 [Example 17, 2-(aminomethyl)-N-((5-fluoro-2,3-dihydrobenzofuran-4-yl)methyl)-8-(3-fluoro-2-methylphenyl)imidazo[1,2-c]pyrimidin-5-amine] | 5.30 to 6.30 | 5.30 to 6.30 | 5.70 to 6.30 |  |  |
| Cc1ncccc1-c1cnc(NCc2c(F)ccc3c2CCO3)n2cc(CN)nc12 [Example 19, 2-(aminomethyl)-N-((5-fluoro-2,3-dihydrobenzofuran-4-yl)methyl)-8-(2-methylpyridin-3-yl)imidazo[1,2-c]pyrimidin-5-amine] | > 6.60 | 6.30 to 6.60 | > 6.60 |  |  |
| Cc1cc(-c2cnc(NCc3c(F)ccc4c3CCO4)n3cc(CN(CCS(=O)(=O)F)CCS(=O)(=O)F)nc23)n(C)n1 [Example 28, 2,2′-(((8-(1,3-dimethyl-1H-pyrazol-5-yl)-5-(((5-fluoro-2,3-dihydrobenzofuran-4-yl)methyl)amino)imidazo[1,2-c]pyrimidin-2-yl)methyl)azanediyl)bis(ethane-1-sulfonylfluoride)] |  |  | 5.70 to 6.30 | 5.30 to 6.30 | 5.30 to 6.30 |
| Cc1cc(-c2cnc(NCc3c(F)ccc4c3CCO4)n3cc(CNCc4ccccc4)nc23)n(C)n1 [Example 32, 2-((benzylamino)methyl)-8-(1,3-dimethyl-1H-pyrazol-5-yl)-N-((5-fluoro-2,3-dihydrobenzofuran-4-yl)methyl)imidazo[1,2-c]pyrimidin-5-amine] | > 6.60 | 6.30 to 6.60 | 5.70 to 6.30 |  |  |
| COCc1cn2c(NCc3c(F)ccc4c3CCO4)ncc(-c3cc(C)nn3C)c2n1 [Example 9, 8-(1,3-dimethyl-1H-pyrazol-5-yl)-N-((5-fluoro-2,3-dihydrobenzofuran-4-yl)methyl)-2-(methoxymethyl)imidazo[1,2-c]pyrimidin-5-amine] | 6.30 to 6.60 | 5.30 to 6.30 | 5.70 to 6.30 |  |  |
| Cc1cc(-c2cnc(NCc3c(F)ccc4c3CCO4)n3cc(-c4nnco4)nc23)n(C)n1 [Example 44, 8-(1,3-dimethyl-1H-pyrazol-5-yl)-N-((5-fluoro-2,3-dihydrobenzofuran-4-yl)methyl)-2-(1,3,4-oxadiazol-2-yl)imidazo[1,2-c]pyrimidin-5-amine] | > 6.60 | > 6.60 | > 6.60 |  |  |

Reference: patent US12252493B2, “Imidazo[1,2-c]pyrimidine derivatives as PRC2 inhibitors for treating cancer” (Mirati Therapeutics, Inc., priority 2019, dated 2025)
